Legend:
[1] = Room temperature solubility in methanol; format: physicochemical; conditions: room temperature (20° C. to 30° C.)
Log P value = format: physicochemical

solubility in methanol [1]: 0.3 wt % | logP (Log P value): 3.7
Structure (SMILES): CCC(=O)O[C@]1(C(=O)SCF)[C@H](C)C[C@H]2[C@@H]3C[C@H](F)C4=CC(=O)C=C[C@]4(C)[C@@]3(F)[C@@H](O)C[C@@]21C [Active Agent 1, S-(fluoromethyl) 6α,9-difluoro-11β,17-dihydroxy-16α-methyl-3-oxoandrosta-1,4-diene-17β-carbothioate, 17-propionate]

From US9248584B2, “High-temperature spray drying process and apparatus” (Bend Research, Inc., priority 2010, dated 2016)
